Results published in PubChem BioAssay AID328 (DTP/NCI, 2004).
Toxic doses and inconclusive results are not listed. The calls were made as follows: active = survival T/C of 150% or more; inactive = T/C below 125% in these data.

Tested on: BDF1 mice, P388 leukemia ip, median survival T/C
Assay: NCI In Vivo Anticancer Drug Screen. Data for tumor model P388 Leukemia (intraperitoneal) in B6D2F1 (BDF1) mice
Settings: endpoint: median survival time, higher = longer survival
How it was run: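 Antitumour effect was judged in vivo: survival in drug-treated mice, normalised to that of vehicle-dosed controls, gives the reported T/C.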

[1] = dose: 25.0 mg/kg/injection, schedule: Q01DX009 (ip), vehicle: saline with Tween-80
[2] = dose: 50.0 mg/kg/injection, schedule: Q01DX009 (ip), vehicle: saline with Tween-80
[3] = dose: 100.0 mg/kg/injection, schedule: Q01DX009 (ip), vehicle: saline with Tween-80
[4] = dose: 50.0 mg/kg/injection, schedule: Q01DX009 (ip), vehicle: saline
[5] = dose: 200.0 mg/kg/injection, schedule: Q01DX009 (ip), vehicle: saline
[6] = dose: 100.0 mg/kg/injection, schedule: Q01DX009 (ip), vehicle: saline

Measured: T/C

CCN1CSC(=S)N(CC)C1
inactive: dose: 12.5 mg/kg/injection, schedule: Q01DX009 (ip), vehicle: Klucel (hydroxypropylcellulose) (HPC) 110 % of control | dose: 25.0 mg/kg/injection, schedule: Q01DX009 (ip), vehicle: Klucel (hydroxypropylcellulose) (HPC) 110 % of control | [1] 109 % of control | dose: 25.0 mg/kg/injection, schedule: Q04DX003 (ip), vehicle: Klucel (hydroxypropylcellulose) (HPC) 95 % of control | dose: 37.5 mg/kg/injection, schedule: Q01DX009 (ip), vehicle: saline with Tween-80 109 % of control | dose: 50.0 mg/kg/injection, schedule: Q01DX009 (ip), vehicle: Klucel (hydroxypropylcellulose) (HPC) 110 % of control | [2] 109 % of control | dose: 50.0 mg/kg/injection, schedule: Q04DX003 (ip), vehicle: Klucel (hydroxypropylcellulose) (HPC) 87 % of control | dose: 75.0 mg/kg/injection, schedule: Q01DX009 (ip), vehicle: saline with Tween-80 119 % of control | [3] 122 % of control

CC(=O)Nc1c(C)cc(C)cc1C
inactive: dose: 100.0 mg/kg/injection, schedule: Q04DX003 (ip), vehicle: Klucel (hydroxypropylcellulose) (HPC) 104 % of control | dose: 200.0 mg/kg/injection, schedule: Q04DX003 (ip), vehicle: Klucel (hydroxypropylcellulose) (HPC) 100 % of control | dose: 400.0 mg/kg/injection, schedule: Q04DX003 (ip), vehicle: Klucel (hydroxypropylcellulose) (HPC) 118 % of control

CC(=O)CC(=O)Nc1nc2ccccc2s1
inactive: [4] 94 % of control | [5] 105 % of control

CCCCCCCC(=O)Nc1cc(C(F)(F)F)ccc1Cl
inactive: dose: 100.0 mg/kg/injection, schedule: Q04DX003 (ip), vehicle: other 100 % of control | dose: 200.0 mg/kg/injection, schedule: Q04DX003 (ip), vehicle: other 109 % of control | dose: 400.0 mg/kg/injection, schedule: Q04DX003 (ip), vehicle: other 104 % of control

CSc1c(C)[nH]c2ccc([N+](=O)[O-])cc12
inactive: dose: 25.0 mg/kg/injection, schedule: Q01DX001 (ip), vehicle: saline with Tween-80 95 % of control | dose: 50.0 mg/kg/injection, schedule: Q01DX001 (ip), vehicle: saline with Tween-80 111 % of control | dose: 100.0 mg/kg/injection, schedule: Q01DX001 (ip), vehicle: saline with Tween-80 100 % of control

CCOP1(=S)OCC(C)O1 (stereo not given)
inactive: dose: 100.0 mg/kg/injection, schedule: Q04DX002 (ip), vehicle: saline with Tween-80 105 % of control | dose: 200.0 mg/kg/injection, schedule: Q04DX002 (ip), vehicle: saline with Tween-80 99 % of control | dose: 400.0 mg/kg/injection, schedule: Q04DX002 (ip), vehicle: saline with Tween-80 105 % of control

CCOC(=O)C(=O)N(Cc1cnc2nc(N)[nH]c(=O)c2n1)c1ccc(C(=O)NC(CCC(=O)O)C(=O)O)cc1 (stereo not given)
inactive: dose: 50.0 mg/kg/injection, schedule: Q04DX003 (ip), vehicle: saline 96 % of control | dose: 100.0 mg/kg/injection, schedule: Q04DX003 (ip), vehicle: saline 103 % of control | dose: 200.0 mg/kg/injection, schedule: Q04DX003 (ip), vehicle: saline 116 % of control

COc1ccc(C(C)=O)c(OC)c1C
inactive: [6] 104 % of control | [5] 96 % of control | dose: 400.0 mg/kg/injection, schedule: Q01DX009 (ip), vehicle: saline 100 % of control

O=C(N1CCCC1)C(F)(F)C(F)(F)C(F)(F)F
inactive: [2] 90 % of control | [3] 99 % of control

CC(C)C(NC(=O)CN)C(=O)OCCCCS(=O)(=O)c1ccc(CO)cc1 (stereo not given)
inactive: dose: 50.0 mg/kg/injection, schedule: Q01DX005 (ip), vehicle: suspension in saline 100 % of control | dose: 100.0 mg/kg/injection, schedule: Q01DX005 (ip), vehicle: suspension in saline 100 % of control | dose: 200.0 mg/kg/injection, schedule: Q01DX005 (ip), vehicle: suspension in saline 95 % of control

NC(=S)N/N=C/c1ccccn1
inactive: dose: 1.0 mg/kg/injection, schedule: Q01DX010 (ip), vehicle: carboxymethylcellulose (CMC) 110 % of control | dose: 2.0 mg/kg/injection, schedule: Q01DX010 (ip), vehicle: carboxymethylcellulose (CMC) 110 % of control | dose: 30.0 mg/kg/injection, schedule: Q01DX010 (ip), vehicle: saline 112 % of control

C=Cc1c(C)c(O)cc2c1-c1ccc(O)c(C)c1CC2
inactive: dose: 6.25 mg/kg/injection, schedule: Q01DX009 (ip), vehicle: saline with Tween-80 104 % of control | dose: 12.5 mg/kg/injection, schedule: Q01DX009 (ip), vehicle: saline with Tween-80 104 % of control | [1] 104 % of control | [2] 100 % of control

CCCCOP1(=O)N(C)CCN1C
inactive: [4] 102 % of control | [6] 105 % of control | [5] 102 % of control
